{
  "source": "patent US7973036B2",
  "about": "“2-methyl-5-imino-benzo[D][1 ,3]oxazin[5-B]pyrazole compound, preparation and use thereof” (Qingdao Huanghai Pharmaceutical Co., Ltd, priority 2008, dated 2011)",
  "key": {"[1]": {"system": "cerebral ischemia reperfusion model of middle cerebral artery occlusion (MCAO)", "assay": "Cerebral ischemia reperfusion model of middle cerebral artery occlusion (MCAO), suture method", "format": "in vivo, SD rats", "conditions": "for Variation value of water content in brain (%) / brain tissue MDA content / brain tissue SOD activity / Scores of neurological defect symptoms / Cerebral infarction area (%) / Cerebral infarction area (%) (table title: brain injury): X ± SD; for Cerebral infarction area (%): Table 5; for Cerebral infarction area (%) (table title: brain injury): Table 6, brain injury", "experimental": "Cerebral ischemia reperfusion model of middle cerebral artery occlusion (MCAO) was established in SD rats using the suture method of internal carotid artery. Test rats were administrated once 0.5 hours after ischemia reperfusion, then once every 2 hours, for totally three times. Neurological defect symptoms were observed 48 hours after cerebral ischemia."}, "[2]": {"assay": "Anti-DPPH free radical test (spectrophotometry at 517 nm)", "format": "biochemical", "description": "Anti-DPPH Free Radical Test\n2,2-diphenyl-1-picrylhydrazyl (DPPH) free radical spectrophotometry is a simple method for screening antioxidants, the principle of which is using the characteristic absorption peak of DPPH solution at 517 nm. When free radical scavengers existed, single electron pairing between free radical scavenger and DPPH allowed the absorption of DPPH disappeared, and its decoloring degree and accepted electron number present as quantitative relation, and the antioxidant activity of samples can be evaluated through the amount of cleared DPPH, so the spectrophotometry can be used for quantitative analysis.\nDPPH was accurately weighed and placed in a volumetric flask, and diluted to 100 ml with 95% ethanol. The absorbance (A) of DPPH was measured at 517 nm.\nDPPH standard curve was shown in FIG. 1, the linear equation of which was as follows: y=0.219x−0.0285; r=0.9994.\nDPPH was accurately weighed and placed in a 100 ml volumetric flask, and diluted to 100 ml with 95% ethanol to produce the DPPH solution.\nPreparation of Test Drug Solution: the Test Drug was Accurately Weighed and Placed in a 100 ml volumetric flask, dissolved with 20 ml of 95% ethanol, adjusted to pH 7.5 and diluted to 100 ml with 95% ethanol.\n5.0 ml of DPPH solution and 2.0 ml test drug solution were taken and placed in a 10 ml volumetric flask, fully shaken at room temperature for a certain time followed by determination of absorption value (A) at 517 nm.\nFormula for calculating DPPH free radical scavenging ability of test drug, E (mgDPPH/mg):\nFormula for calculating DPPH free radical scavenging ability of test drug, V (mmolDPPH/mmol): […]"}, "[3]": {"conditions": "TR high dose group (6.0 mg/kg), P<0.001"}, "[4]": {"conditions": "TR 1.5 mg/kg, three administrations, n=7"}, "[5]": {"conditions": "TR 3.0 mg/kg, three administrations, n=8"}, "[6]": {"conditions": "TR 6.0 mg/kg, three administrations, n=8"}},
  "data": [
    {"smiles": "Cc1cc2oc(=N)c3ccccc3n2n1", "note": "[TR, 2-methyl-5-imino-benzo[d][1,3]oxazin[5-b]pyrazole]", "values": [
      {"measurement": "Variation value of water content in brain (%)", "setting": "[1]; TR 1.5 mg/kg, n=7", "value": "2.1 ± 1.08", "unit": "%"},
      {"measurement": "brain tissue MDA content", "setting": "[1]; TR 1.5 mg/kg, n=7", "value": "6.6 ± 1.30", "unit": "nmol/mgprot"},
      {"measurement": "brain tissue SOD activity", "setting": "[1]; TR 1.5 mg/kg, n=7", "value": "107.1 ± 15.5", "unit": "U/mgprot"},
      {"measurement": "Variation value of water content in brain (%)", "setting": "[1]; TR 3.0 mg/kg, n=8", "value": "2.0 ± 1.01", "unit": "%"},
      {"measurement": "brain tissue MDA content", "setting": "[1]; TR 3.0 mg/kg, n=8", "value": "6.5 ± 0.81", "unit": "nmol/mgprot"},
      {"measurement": "brain tissue SOD activity", "setting": "[1]; TR 3.0 mg/kg, n=8", "value": "121.6 ± 16.8", "unit": "U/mgprot"},
      {"measurement": "Variation value of water content in brain (%)", "setting": "[1]; TR 6.0 mg/kg, n=9", "value": "1.2 ± 0.55", "unit": "%"},
      {"measurement": "brain tissue MDA content", "setting": "[1]; TR 6.0 mg/kg, n=9", "value": "5.0 ± 1.10", "unit": "nmol/mgprot"},
      {"measurement": "brain tissue SOD activity", "setting": "[1]; TR 6.0 mg/kg, n=9", "value": "132.7 ± 21.0", "unit": "U/mgprot"},
      {"measurement": "MDA content compared with the model group", "setting": "[1]; [3]", "value": "significantly decreased"},
      {"measurement": "brain injury compared with the model group", "setting": "[1]; [3]", "value": "significantly reduced"},
      {"measurement": "cerebral infarction area compared with the model group", "setting": "[1]; [3]", "value": "significantly reduced"},
      {"measurement": "water content in brain compared with the model group", "setting": "[1]; [3]", "value": "significantly reduced"},
      {"measurement": "SOD activity compared with the model group", "setting": "[1]; TR high dose group (6.0 mg/kg), P=0.007", "value": "significantly increased"},
      {"measurement": "cerebral infarction area compared with the model group", "setting": "[1]; TR low dose group (1.5 mg/kg), P=0.044", "value": "significantly reduced"},
      {"measurement": "water content in brain compared with the model group", "setting": "[1]; TR low dose group (1.5 mg/kg), P=0.086", "value": "No obvious difference"},
      {"measurement": "MDA content compared with the model group", "setting": "[1]; TR low dose group (1.5 mg/kg), P=0.211", "value": "No obvious difference"},
      {"measurement": "SOD activity compared with the model group", "setting": "[1]; TR low dose group (1.5 mg/kg), P=0.826", "value": "No obvious difference"},
      {"measurement": "cerebral infarction area compared with the model group", "setting": "[1]; TR medium dose group (3.0 mg/kg), P<0.001", "value": "significantly reduced"},
      {"measurement": "brain injury compared with the model group", "setting": "[1]; TR medium dose group (3.0 mg/kg), P=0.001", "value": "significantly reduced"},
      {"measurement": "water content in brain compared with the model group", "setting": "[1]; TR medium dose group (3.0 mg/kg), P=0.039", "value": "significantly reduced"},
      {"measurement": "MDA content compared with the model group", "setting": "[1]; TR medium dose group (3.0 mg/kg), P=0.141", "value": "No obvious difference"},
      {"measurement": "SOD activity compared with the model group", "setting": "[1]; TR medium dose group (3.0 mg/kg), P=0.157", "value": "No obvious difference"},
      {"measurement": "Scores of neurological defect symptoms", "setting": "[1]; Table 4 series, TR 1.5 mg/kg, three administrations, 48 hours after cerebral ischemia, n=7", "value": "1.6 ± 0.75"},
      {"measurement": "Scores of neurological defect symptoms", "setting": "[1]; Table 4 series, TR 3.0 mg/kg, three administrations, 48 hours after cerebral ischemia, n=8", "value": "1.1 ± 0.44"},
      {"measurement": "Scores of neurological defect symptoms", "setting": "[1]; Table 4 series, TR 6.0 mg/kg, three administrations, 48 hours after cerebral ischemia, n=8", "value": "1.0 ± 0.46"},
      {"measurement": "neurological defect symptoms compared with the model group", "setting": "[1]; Table 4 series, TR high dose group (6.0 mg/kg), P<0.001", "value": "significantly reduced"},
      {"measurement": "neurological defect symptoms compared with the model group", "setting": "[1]; Table 4 series, TR low dose group (1.5 mg/kg), P=0.001", "value": "significantly reduced"},
      {"measurement": "neurological defect symptoms compared with the model group", "setting": "[1]; Table 4 series, TR medium dose group (3.0 mg/kg), P<0.001", "value": "significantly reduced"},
      {"measurement": "Cerebral infarction area (%)", "setting": "[1]; [4]", "value": "26.5 ± 13.24", "unit": "%"},
      {"measurement": "Cerebral infarction area (%)", "setting": "[1]; [5]", "value": "17.4 ± 10.05", "unit": "%"},
      {"measurement": "Cerebral infarction area (%)", "setting": "[1]; [6]", "value": "6.7 ± 6.30^#& %"},
      {"measurement": "Cerebral infarction area (%) (table title: brain injury)", "setting": "[1]; [4]", "value": "33.6 ± 16.08", "unit": "%"},
      {"measurement": "Cerebral infarction area (%) (table title: brain injury)", "setting": "[1]; [5]", "value": "22.7 ± 12.10", "unit": "%"},
      {"measurement": "Cerebral infarction area (%) (table title: brain injury)", "setting": "[1]; [6]", "value": "8.1 ± 5.68^#& %"},
      {"measurement": "Scores of neurological defect symptoms", "setting": "[1]; Table 7 series, TR 1.5 mg/kg, n=7", "value": "1.9 ± 0.84"},
      {"measurement": "Scores of neurological defect symptoms", "setting": "[1]; Table 7 series, TR 3.0 mg/kg, n=8", "value": "1.8 ± 0.70"},
      {"measurement": "Scores of neurological defect symptoms", "setting": "[1]; Table 7 series, TR 6.0 mg/kg, n=9", "value": "1.0 ± 0.58"},
      {"measurement": "neurological defect symptoms compared with the model group", "setting": "[1]; Table 7 series, TR high dose group (6.0 mg/kg), P<0.001", "value": "significantly relieved"},
      {"measurement": "neurological defect symptoms compared with the model group", "setting": "[1]; Table 7 series, TR low dose group (1.5 mg/kg), P=0.001", "value": "significantly relieved"},
      {"measurement": "neurological defect symptoms compared with the model group", "setting": "[1]; Table 7 series, TR medium dose group (3.0 mg/kg), P<0.001", "value": "significantly relieved"},
      {"measurement": "onset dose", "setting": "[1]; improvement of neurological defect symptoms, infarction area, brain injury, brain edema, lipid peroxidation in cerebral ischemia-reperfusion animals", "value": 3, "unit": "mg/kg"},
      {"measurement": "DPPH free radical scavenging ability with the reaction time", "setting": "[2]; 30-150 min", "value": "gradually increased"},
      {"measurement": "Hydrolysis in the reaction liquid with the reaction time", "setting": "[2]; 95% ethanol, pH 7.5, room temperature, 30-150 min", "value": "gradually hydrolyzed into Compound 3"},
      {"measurement": "DPPH free radical scavenging ability E, one value per sample (mean of the five concentrations)", "setting": "[2]; 30 min", "value": 0.419, "unit": "mgDPPH/mg"},
      {"measurement": "DPPH free radical scavenging ability V", "setting": "[2]; 30 min", "value": 0.212, "unit": "mmolDPPH/mmol"},
      {"measurement": "DPPH free radical scavenging ability E", "setting": "[2]; 30 min, test drug C 0.152 (Edaravone), 0.153 (Compound 1, 2), 0.159 (Compound 3) mg/100 ml", "value": 0.409, "unit": "mgDPPH/mg"},
      {"measurement": "DPPH free radical scavenging ability E", "setting": "[2]; 30 min, test drug C 0.304 (Edaravone), 0.305 (Compound 1, 2), 0.318 (Compound 3) mg/100 ml", "value": 0.368, "unit": "mgDPPH/mg"},
      {"measurement": "DPPH free radical scavenging ability E", "setting": "[2]; 30 min, test drug C 0.608 (Edaravone), 0.610 (Compound 1, 2), 0.635 (Compound 3) mg/100 ml", "value": 0.310, "unit": "mgDPPH/mg"},
      {"measurement": "DPPH free radical scavenging ability E", "setting": "[2]; 30 min, test drug C 1.215 (Edaravone), 1.220 (Compound 1, 2), 1.270 (Compound 3) mg/100 ml", "value": 0.561, "unit": "mgDPPH/mg"},
      {"measurement": "DPPH free radical scavenging ability E", "setting": "[2]; 30 min, test drug C 2.430 (Edaravone), 2.440 (Compound 1, 2), 2.540 (Compound 3) mg/100 ml", "value": 0.445, "unit": "mgDPPH/mg"}
    ]}
  ]
}
